These results are taken from the OligoGym collection.

In this series the target is APOL1. The note with it: ASO.

Several values for one entry are separate records, joined by “and”; a condition that tells them apart may be missing. Equal values may be shown once. After the bases stand the sugars from the 5' end (letter, count) and the backbone: PS all phosphorothioate, else s phosphorothioate and o phosphodiester by linkage. Methylation of C is not given here. e = 2'-O-(2-methoxyethyl) (MOE); k = constrained ethyl (cEt); d = 2'-deoxy (DNA)

Under “A431, 2 µM”, “ATCAGATGGGTACTTC (sugars kkkddddkekeddddd, PS)” showed a target mRNA inhibition of 85%.

As for ATGAACGCAATGCTGA (sugars k4 d9 k3, PS), the target mRNA inhibition runs as follows: (A431, 0.0625 µM) 52%; (A431, 0.25 µM) 76%; (A431, 1 µM) 92%.

On to “ATGCTAATTTTCTGAC (sugars kkkddddkekekdddd, PS)”, for which the target mRNA inhibition runs as follows: (A431, 0.0156 µM) 26%; (A431, 0.0625 µM) 46%; (A431, 0.25 µM) 68%; (A431, 1 µM) 88%; (A431, 2 µM) 95%.

As for “ATTCTATTAGAGGGCT (sugars k3 d5 k3 d5, PS)”, under “A431, 2 µM”, the target mRNA inhibition stood at 95%.

Consider “ATTCTATTAGAGGGCT (sugars kekddddeekkddddd, PS)”, for which, under “A431, 2 µM”, the target mRNA inhibition is 77%.

In the case of “ATTCTATTAGAGGGCT (sugars kkddddkdkdkddddd, PS)”, under “A431, 2 µM”, the target mRNA inhibition stood at 74%.

Where the note is “A431, 2 µM”, “ATTCTATTAGAGGGCT (sugars kkkddddkdkdkdddd, PS)” came in with a target mRNA inhibition of 78%.

For “ATTCTATTAGAGGGCT (sugars kkkddddkekeddddd, PS)”, the target mRNA inhibition (A431, 2 µM) was 73%.

“ATTCTATTAGAGGGCT (sugars kkkddddkekekdddd, PS)” had a target mRNA inhibition (A431, 2 µM) of 37%.

With ATTCTCATGGTACAGG (sugars k4 d9 k3, PS), the target mRNA inhibition is 24% (A431, 0.0156 µM); 49% and 50% (A431, 0.0625 µM); 83% and 84% (A431, 0.25 µM); 94% and 93% (A431, 1 µM).

“ATTCTCATGGTACAGG (sugars kddddkekekeddddd, PS)”: the target mRNA inhibition (A431, 2 µM) was found to be 51%.

As to “ATTCTCATGGTACAGG (sugars kekddddeekkddddd, PS)”, the target mRNA inhibition turned out to be 0% (A431, 0.0156 µM); 37% (A431, 0.0625 µM); 76% (A431, 0.25 µM); 90% (A431, 1 µM); 96% (A431, 2 µM).

In the case of “ATTCTCATGGTACAGG (sugars kkddddekekeddddd, PS)”, the target mRNA inhibition (A431, 0.0156 µM) worked out at 40%; the target mRNA inhibition (A431, 0.0625 µM) was found to be 41%; the target mRNA inhibition (A431, 0.25 µM) is 71%; the target mRNA inhibition (A431, 1 µM) turned out to be 90%; the target mRNA inhibition (A431, 2 µM) is 95%.

“ATTCTCATGGTACAGG (sugars kkddddkekekkdddd, PS)” gave a target mRNA inhibition (A431, 2 µM) of 34%.

For the sequence ATTTCTTGATGTGGTG (sugars k4 d9 k3, PS), the target mRNA inhibition runs as follows: (A431, 0.0625 µM) 95%; (A431, 0.25 µM) 99%; (A431, 1 µM) 99%.

“ATTTCTTGATGTGGTG (sugars kdddddkekekddddd, PS)”: the target mRNA inhibition was determined as 22% (A431, 0.0156 µM); 50% (A431, 0.0625 µM); 80% (A431, 0.25 µM); 91% (A431, 1 µM); 96% (A431, 2 µM).

As to CAAGTCAGTACAGAGC (sugars k4 d9 k3, PS), the target mRNA inhibition is, setting by setting: (A431, 0.0625 µM) 57%; (A431, 0.25 µM) 82%; (A431, 1 µM) 94%.

In the case of CACATCATTGGGTTAT (sugars k4 d9 k3, PS), the target mRNA inhibition by setting is: (A431, 0.0625 µM) 65%; (A431, 0.25 µM) 84%; (A431, 1 µM) 90%.

“CACATCATTGGGTTAT (sugars kkdddddkekeddddd, PS)” showed a target mRNA inhibition (A431, 2 µM) of 77%.

“CACATCATTGGGTTAT (sugars kkddddekekeddddd, PS)” registered a target mRNA inhibition (A431, 2 µM) of 81%.

For “CACATCATTGGGTTAT (sugars kkkddddkekekdddd, PS)”, for the setting “A431, 2 µM”, the target mRNA inhibition was 58%.

Take CACCATAGCACGAAGC (sugars k4 d9 k3, PS): the target mRNA inhibition is, setting by setting: (A431, 0.0625 µM) 23%; (A431, 0.25 µM) 53%; (A431, 1 µM) 72%.

Regarding “CACTTTACATGCACGA (sugars kkddddddddddkeke, PS)”, the target mRNA inhibition by setting is: (A431, 0.0156 µM) 16%; (A431, 0.0625 µM) 35%; (A431, 0.25 µM) 66%; (A431, 1 µM) 87%.

On to “CACTTTATACCAGTGT (sugars k2 d4 e3 k2 d5, PS)”, for which the target mRNA inhibition (A431, 2 µM) is 0%.

As to “CACTTTATACCAGTGT (sugars kkkddddkekekdddd, PS)”, where the note is “A431, 2 µM”, the target mRNA inhibition was determined as 11%.

Take “CAGATGGGTACTTCTG (sugars kkddddkekekkdddd, PS)”: the target mRNA inhibition (A431, 2 µM) amounted to 10%.

As to CAGCATTGAGTACAAC (sugars k3 d10 k3, PS), the target mRNA inhibition runs as follows: (A431, 0.0625 µM) 38%; (A431, 0.25 µM) 58%; (A431, 1 µM) 84%.

CAGTACAGAGCAGGAT (sugars k4 d9 k3, PS): the target mRNA inhibition runs as follows: (A431, 0.0625 µM) 59%; (A431, 0.25 µM) 82%; (A431, 1 µM) 94%.

With “CAGTTTTGTAAGTGCA (sugars kekddddeekkddddd, PS)”, the target mRNA inhibition is, setting by setting: (A431, 0.0156 µM) 39%; (A431, 0.0625 µM) 73%; (A431, 0.25 µM) 92%; (A431, 1 µM) 96%; (A431, 2 µM) 96%.

Turning to “CAGTTTTGTAAGTGCA (sugars kkdddddkekeddddd, PS)”, the target mRNA inhibition was 25% (A431, 0.0156 µM); 53% (A431, 0.0625 µM); 84% (A431, 0.25 µM); 89% (A431, 1 µM); 94% (A431, 2 µM).

“CAGTTTTGTAAGTGCA (sugars kkkddddkekeddddd, PS)” gave a target mRNA inhibition (A431, 2 µM) of 92%.

“CATTCAGAATTTCCAC (sugars k2 d4 e3 k2 d5, PS)” gave a target mRNA inhibition (A431, 2 µM) of 78%.

In the case of “CATTCAGAATTTCCAC (sugars kkddddekekeddddd, PS)”, the target mRNA inhibition (A431, 2 µM) was 87%.

Sequence “CATTCAGAATTTCCAC (sugars kkddddkekekddddd, PS)” showed a target mRNA inhibition (A431, 2 µM) of 76%.

Regarding “CATTCAGAATTTCCAC (sugars kkddddkekekkdddd, PS)”, the target mRNA inhibition (A431, 2 µM) is 57%.

As for CATTTGGAGATCTGGC (sugars k4 d9 k3, PS), the target mRNA inhibition turned out to be 57% (A431, 0.0625 µM); 74% (A431, 0.25 µM); 92% (A431, 1 µM).

On to CCACTTGAGTCATTTG (sugars k4 d9 k3, PS), for which the target mRNA inhibition runs as follows: (A431, 0.0625 µM) 40%; (A431, 0.25 µM) 72%; (A431, 1 µM) 90%.

The sequence “CCGTCAATATATTCTT (sugars kkkddddkekeddddd, PS)” yielded a target mRNA inhibition (A431, 2 µM) of 97%.

As for “CGCAATGCTGACTTGG (sugars k3 d4 k3 e1 d5, PS)”, the target mRNA inhibition by setting is: (A431, 0.0156 µM) 34%; (A431, 0.04 µM) 50%; (A431, 0.0625 µM) 61%; (A431, 0.25 µM) 83%; (A431, 1 µM) 92%; (A431, 2 µM) 94%.

In the case of “CGCAATGCTGACTTGG (sugars kkddddkekekddddd, PS)”, the target mRNA inhibition (A431, 2 µM) came to 83%.

Regarding “CGTCAATATATTCTTT (sugars k3 d4 k3 e1 d5, PS)”, the target mRNA inhibition was 96% and 95% (A431, 1 µM); 95% (A431, 2 µM).

Consider “CGTCAATATATTCTTT (sugars kkdddddkekeddddd, PS)”, for which, where the note is “A431, 2 µM”, the target mRNA inhibition stood at 87%.

“CGTCAATATATTCTTT (sugars kkddddkdkdkddddd, PS)” registered a target mRNA inhibition (A431, 2 µM) of 91%.

Regarding “CGTCAATATATTCTTT (sugars kkkddddkekeddddd, PS)”, the target mRNA inhibition runs as follows: (A431, 0.0156 µM) 35%; (A431, 0.04 µM) 53% and 50%; (A431, 0.0625 µM) 72%; (A431, 0.25 µM) 90%; (A431, 1 µM) 96% and 95%; (A431, 2 µM) 94%.

For the sequence “CGTCAATATATTCTTT (sugars kkkddddkekekdddd, PS)”, the target mRNA inhibition amounted to 25% (A431, 0.0156 µM); 55% (A431, 0.0625 µM); 84% (A431, 0.25 µM); 93% (A431, 1 µM); 94% (A431, 2 µM).

For the setting “A431, 2 µM”, “CGTGTTATATTTGATC (sugars k2 d4 e3 k2 d5, PS)” yielded a target mRNA inhibition of 74%.

For “CGTGTTATATTTGATC (sugars kkkddddkekekdddd, PS)”, the target mRNA inhibition (A431, 2 µM) amounted to 82%.

For the sequence “CTAATTTTCTGACTGT (sugars k2 d4 e3 k2 d5, PS)”, the target mRNA inhibition (A431, 2 µM) was 83%.

With “CTAATTTTCTGACTGT (sugars k2 d4 e4 k2 d4, PS)”, the target mRNA inhibition (A431, 2 µM) came to 88%.

As for “CTAATTTTCTGACTGT (sugars kkdddddkekeddddd, PS)”, the target mRNA inhibition is, setting by setting: (A431, 0.0156 µM) 27%; (A431, 0.0625 µM) 56%; (A431, 0.25 µM) 80%; (A431, 1 µM) 93%; (A431, 2 µM) 98%.

For the sequence CTATTAGAGGGCTAGT (sugars k4 d9 k3, PS), the target mRNA inhibition runs as follows: (A431, 0.0625 µM) 32% and 19%; (A431, 0.25 µM) 52% and 39%; (A431, 1 µM) 71% and 51%.

For the setting “A431, 2 µM”, “CTATTAGAGGGCTAGT (sugars kdddddkekekddddd, PS)” registered a target mRNA inhibition of 28%.

As to “CTATTAGAGGGCTAGT (sugars kkddddkekekkdddd, PS)”, for the setting “A431, 2 µM”, the target mRNA inhibition was 25%.

Take “CTGAAGATTGGCTCTG (sugars k2 d4 e3 k2 d5, PS)”: the target mRNA inhibition (A431, 2 µM) is 54%.

For CTTATGCTTACTCCAC (sugars k4 d9 k3, PS), the target mRNA inhibition is 64% (A431, 0.0625 µM); 75% (A431, 0.25 µM); 90% (A431, 1 µM).

Where the note is “A431, 2 µM”, “CTTTAAACTCAGGTGA (sugars k2 d4 e4 k2 d4, PS)” showed a target mRNA inhibition of 88%.

Where the note is “A431, 2 µM”, “CTTTAAACTCAGGTGA (sugars kkdddddkekeddddd, PS)” displayed a target mRNA inhibition of 87%.

Take “CTTTAAACTCAGGTGA (sugars kkkddddkekekdddd, PS)”: for the setting “A431, 2 µM”, the target mRNA inhibition turned out to be 40%.

Consider “CTTTATACCAGTGTCT (sugars kkdddddkekeddddd, PS)”, for which the target mRNA inhibition reads like this: (A431, 0.0156 µM) 14%; (A431, 0.0625 µM) 41%; (A431, 0.25 µM) 74%; (A431, 1 µM) 92%; (A431, 2 µM) 97%.
